Structures are written as SMILES. Activity calls are given as the source filed them. No cut-off for these calls is given here.

Series [1] deals with HaCaT. Kind of series: Cytotoxicity against human HaCaT cells at 10 ug/ml by MTT assay. In kind it is cell-based. Background: Tetrazolium dyes change colour on reduction, which living cells bring about.
For series [2], the system named is Jurkat. Kind of series: Cytotoxicity against human Jurkat cells assessed as effect on respiration rate at 10 ug/ml by Chip-based Bionas system. In kind it is cell-based.
Series [3] deals with Mus musculus. Nature of the series: Antisepsis activity in Salmonella enterica serovar Minnesota R60 LPS-induced C57BL/6 mouse lethal endotoxin shock model assessed as mouse survival at 12.5 ug, ip administered immediately after LPS challenge. In kind it is functional, organism-based.
Series [4] relates to PBMC. Kind of series: Cytotoxicity against human PBMC cells assessed as effect on respiration rate at 100 ug/ml by Chip-based Bionas system. The format is cell-based.
Series [5] has as its system Mus musculus. Kind of series: Antisepsis activity in Salmonella enterica serovar Minnesota R60 LPS-induced C57BL/6 mouse lethal endotoxin shock model assessed as mouse survival at 2.5 ug, ip administered immediately after LPS challenge measured 48 hrs post LPS challenge. The format is functional, organism-based.
The subject of series [6] is HepG2. Nature of the series: Cytotoxicity against human HepG2 cells assessed as effect on respiration rate at 10 ug/ml by Chip-based Bionas system. In kind it is cell-based.
In series [7] the test system is HeLa. Nature of the series: Cytotoxicity against human HeLa cells at 100 ug/ml by MTT assay. The format is cell-based.
For series [8], the system named is HepG2. Nature of the series: Cytotoxicity against human HepG2 cells assessed as effect on respiration rate at 100 ug/ml by Chip-based Bionas system. The format is cell-based.
The test system of series [9] is Jurkat. Kind of series: Cytotoxicity against human Jurkat cells assessed as effect on respiration rate at 100 ug/ml by Chip-based Bionas system. In kind it is cell-based.
Series [10] can be described thus: Cytotoxicity against human LS 174T cells assessed as effect on respiration rate at 10 ug/ml by Chip-based Bionas system. As to conditions: ls174t. In kind it is cell-based.
For the next series, the species on record is Homo sapiens. Kind of series: Antiinflammatory activity in human MNC assessed as inhibition of LPS-induced TNFalpha production at compound: LPS ratio of 100:1 weight percent by ELISA. In kind it is functional. (In general: ELISA stands for enzyme-linked immunosorbent assay.)
Series [11] has as its system HaCaT. Nature of the series: Cytotoxicity against human HaCaT cells at 100 ug/ml by MTT assay. In kind it is cell-based.
Series [12] relates to PBMC. Kind of series: Cytotoxicity against human PBMC cells assessed as effect on respiration rate at 10 ug/ml by Chip-based Bionas system. In kind it is cell-based.
The subject of the next series is Lipopolysaccharide (LPS). Nature of the series: Binding affinity to Salmonella enterica serovar Minnesota R60 LPS at [compound]/[LPS] ratio of 0.3 by isothermal titration calorimetry. As to conditions: Salmonella enterica subsp. enterica serovar Minnesota. Background: In ITC the heat of successive injections is recorded.
Series [13] can be described thus: Toxicity in human RBC assessed as hemolysis upto 25 ug/ml. The format is cell-based. As to conditions: erythrocyte.
A short description of series [14]: Cytotoxicity against human LS 174T cells assessed as effect on respiration rate at 100 ug/ml by Chip-based Bionas system. In kind it is cell-based. As to conditions: ls174t.
The subject of series [15] is HeLa. Nature of the series: Cytotoxicity against human HeLa cells at 10 ug/ml by MTT assay. In kind it is cell-based.

On to `N=C(N)NCCC[C@H](NC(=O)[C@H](Cc1ccc(O)cc1)NC(=O)[C@H](CCCCN)NC(=O)[C@H](CCCCN)NC(=O)[C@H](CS)NC(=O)CN)C(=O)N[C@@H](CCCNC(=N)N)C(=O)N[C@@H](Cc1ccccc1)C(=O)N[C@@H](CCCNC(=N)N)C(=O)N[C@@H](Cc1c[nH]c2ccccc12)C(=O)N[C@@H](CCCCN)C(=O)N[C@@H](Cc1ccccc1)C(=O)N[C@@H](CCCCN)C(=O)NCC(=O)N[C@@H](CCCCN)C(=O)N[C@@H](Cc1ccccc1)C(=O)N[C@@H](Cc1c[nH]c2ccccc12)C(=O)N[C@@H](Cc1ccccc1)C(=O)N[C@@H](Cc1c[nH]c2ccccc12)C(=O)NCC(=O)O`, for which the Activity result was “Non-toxic” with HaCaT [1]; “Non-toxic” in the series on Jurkat [2]; “Toxic” in the series with PBMC [4]; “Non-toxic” with HepG2 [6]; “Toxic” in the series on HeLa [7]; “Toxic” in the series with HepG2 [8]. Further, the Activity entry in the series with Jurkat [9] is “Toxic”; in series [10], “Non-toxic”; with HaCaT [11], “Toxic”; in the series on PBMC [12], “Non-toxic”; in series [13], “Non-toxic”; in [14] it was “Toxic”. Moreover, the Activity entry in the series with HeLa [15] was “Non-toxic”. In addition, the outcome in the series on Mus musculus [3], with Mus musculus [5] and in the series with Lipopolysaccharide (LPS) was Active. Also, the inhibition result in the series filed under Homo sapiens was “Active”.

The record behind these values is ChEMBL document CHEMBL1687767, “New antiseptic peptides to protect against endotoxin-mediated shock” (Antimicrob Agents Chemother, 2010).
